Measured values taken from US20260200890A1, “ADAR1 INHIBITORS AND METHODS OF USING THE SAME” (AVAMMUNE THERAPEUTICS INC., priority 2022, published 2026).

Molecular target: T1, ADAR1 (Homo sapiens, UniProt P55265)
T1 construct: endogenous in cells; host or cells: p110 KO A549 dual cells
T1 sequence (P55265 1-1226): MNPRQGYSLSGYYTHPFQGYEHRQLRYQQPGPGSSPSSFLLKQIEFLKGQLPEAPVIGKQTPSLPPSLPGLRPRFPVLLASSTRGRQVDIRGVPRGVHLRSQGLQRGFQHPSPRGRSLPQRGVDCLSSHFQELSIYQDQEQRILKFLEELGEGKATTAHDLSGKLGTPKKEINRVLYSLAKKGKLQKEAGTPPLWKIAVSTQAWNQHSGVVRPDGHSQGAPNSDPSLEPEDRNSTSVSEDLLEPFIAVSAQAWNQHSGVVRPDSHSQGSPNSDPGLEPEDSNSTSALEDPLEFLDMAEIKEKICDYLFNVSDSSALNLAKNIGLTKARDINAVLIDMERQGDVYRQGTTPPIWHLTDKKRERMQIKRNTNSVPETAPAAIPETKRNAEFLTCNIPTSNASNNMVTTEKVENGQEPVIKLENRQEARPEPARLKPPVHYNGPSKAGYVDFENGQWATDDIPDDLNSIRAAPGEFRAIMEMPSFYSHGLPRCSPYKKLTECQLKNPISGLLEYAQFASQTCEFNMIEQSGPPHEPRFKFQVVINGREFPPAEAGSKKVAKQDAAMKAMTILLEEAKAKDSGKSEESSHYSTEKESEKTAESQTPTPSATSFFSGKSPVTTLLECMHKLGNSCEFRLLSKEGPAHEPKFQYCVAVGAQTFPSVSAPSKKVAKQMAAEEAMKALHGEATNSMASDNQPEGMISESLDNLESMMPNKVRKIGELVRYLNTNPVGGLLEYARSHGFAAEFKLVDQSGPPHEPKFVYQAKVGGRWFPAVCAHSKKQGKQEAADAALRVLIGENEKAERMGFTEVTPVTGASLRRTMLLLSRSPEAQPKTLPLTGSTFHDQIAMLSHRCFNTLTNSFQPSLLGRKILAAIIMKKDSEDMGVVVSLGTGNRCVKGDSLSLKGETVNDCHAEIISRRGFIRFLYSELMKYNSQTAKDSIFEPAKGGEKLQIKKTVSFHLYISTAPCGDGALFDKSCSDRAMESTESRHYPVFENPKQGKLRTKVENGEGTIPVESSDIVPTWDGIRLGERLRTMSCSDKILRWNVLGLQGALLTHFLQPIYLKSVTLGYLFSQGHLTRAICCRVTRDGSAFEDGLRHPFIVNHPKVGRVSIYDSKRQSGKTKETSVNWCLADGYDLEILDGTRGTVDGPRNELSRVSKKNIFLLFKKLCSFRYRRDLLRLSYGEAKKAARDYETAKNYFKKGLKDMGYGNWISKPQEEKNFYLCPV
Test: ADAR1 Inhibition Assay (IFN fold-induction, Quanti-Luc luminescence, p110 KO A549 dual cells)
Format: cell-based
Settings: IFN fold-induction vs DMSO, 24 and 48 h
How it was run: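 EC50 derived from IFN fold-induction, calculated as sample RLU over average DMSO RLU. Luminescence measured by Quanti-Luc on samples taken after 24 and 48 h of compound exposure (1% DMSO final, 37 °C, 5% CO2). Cells were p110 KO A549 dual, seeded at 20,000 per well in supplemented DMEM.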

Row | EC50 [µM] | Structure (SMILES)
1 | > 100 | CCOC(=O)c1cc(-c2ccccc2)sc1NC(=O)NS(=O)(=O)c1cccc(NS(C)(=O)=O)c1 [Compound 275]
2 | > 100 | CCOC(=O)c1c(NC(=O)COC(=O)c2cccc(S(N)(=O)=O)c2)sc2c1CCC2 [Compound 77]
3 | > 100 | CCOC(=O)c1cc(-c2ccccc2)sc1NC(=O)Cn1cc(CN(c2cccc(N)c2)S(C)(=O)=O)nn1 [Compound 353]
4 | > 100 | CCOC(=O)c1cc(Sc2ccccc2)sc1NC(=O)COC(=O)c1cccc(NS(C)(=O)=O)c1 [Compound 315]
5 | > 100 | CCOC(=O)c1c(NC(=O)COC(=O)c2cccc(NS(C)(=O)=O)c2)sc2c1CCC2 [Compound 86]
6 | > 100 | CN(C)C(=O)c1cc(-c2ccccc2)sc1NC(=O)COC(=O)c1cccc(NS(C)(=O)=O)c1 [Compound 186]
7 | > 100 | NS(=O)(=O)c1cccc(NC(=O)c2csc(-c3ccccc3)c2)c1 [Compound 25]
8 | > 100 | CCOC(=O)c1ccsc1NC(=O)COC(=O)c1cccc(NS(C)(=O)=O)c1 [Compound 97]
9 | > 100 | CCOC(=O)c1cc(-c2ccccc2)sc1-c1coc(/C=N\c2cccc(NS(C)(=O)=O)c2)c1 [Compound 313]
10 | > 100 | NS(=O)(=O)c1cccc(C(=O)NCC(=O)Nc2nnc(-c3ccccc3)s2)c1 [Compound 49]
11 | > 100 | CS(=O)(=O)Nc1cccc(NC(=O)c2cc(-c3ccccc3)sc2N)c1 [Compound 269]
12 | > 100 | CCOC(=O)c1cc(-c2cccc(OC(F)(F)F)c2)sc1NC(=O)COC(=O)c1cccc(NS(C)(=O)=O)c1 [Compound 202]
13 | > 100 | CCOC(=O)c1cc(-c2ccccc2)sc1NC(=O)CC1CCN(C(=O)c2cccc(NS(C)(=O)=O)c2)CC1 [Compound 164]
14 | > 100 | CCOC(=O)c1cc(-c2ccc3c(c2)OCCO3)sc1NC(=O)COC(=O)c1cccc(NS(C)(=O)=O)c1 [Compound 317]
15 | > 100 | CCOC(=O)c1cc(-c2ccccc2C#N)sc1NC(=O)COC(=O)c1cccc(NS(C)(=O)=O)c1 [Compound 197]
16 | 50 to 100 | CCOC(=O)c1cc(-c2ccccc2)oc1NC(=O)COC(=O)c1cccc(NS(C)(=O)=O)c1 [Compound 301]
17 | > 100 | CCOC(=O)c1cc(-c2ccccc2)sc1NC(=O)CNCCS(N)(=O)=O [Compound 14]
18 | > 100 | CCOC(=O)c1cc(-c2ccc(C(=O)Nc3cccc(NS(C)(=O)=O)c3)cc2)sc1NC(C)=O [Compound 266]
19 | > 100 | CCOC(=O)c1cc(-c2ccccc2)sc1NC(=O)CN1CCN(c2cccc(NS(C)(=O)=O)c2)CC1 [Compound 280]

Row | EC50 [µM] | Structure (SMILES)
20 | > 100 | CCOC(=O)c1cc(-c2ccccc2)sc1NC(=O)COC(=O)c1cccc(C(=O)O)c1 [Compound 96]
21 | > 100 | CCOC(=O)c1cc(-c2ccc(C(C)C)cc2)sc1NC(=O)COC(=O)c1cccc(S(N)(=O)=O)c1 [Compound 81]
22 | > 100 | CCOC(=O)c1cc(-c2ccccc2)sc1NC(=O)COC(=O)Nc1cccc(NS(C)(=O)=O)c1 [Compound 166]
23 | > 100 | CCOC(=O)c1cc(-c2ccccc2)sc1CC(=O)C1CCCN1C(=O)c1cccc(C#N)c1 (centres unmarked) [Compound 139]
24 | > 100 | NS(=O)(=O)c1cccc(NC(=O)Cn2nnc(-c3ccccn3)n2)c1 [Compound 32]
25 | ≤ 25 | CCOC(=O)c1cc(-c2ccc(F)cc2)sc1NC(=O)COC(=O)c1cccc(NS(C)(=O)=O)c1 [Compound 108]
26 | > 100 | CS(=O)(=O)Nc1cccc(C(=O)NNC(=O)c2csc(-c3ccccc3)c2)c1 [Compound 281]
27 | > 100 | CS(=O)(=O)Nc1cccc(NC(=O)CSc2nc(N)nc3nc[nH]c23)c1 [Compound 194]
28 | > 100 | CCOC(=O)c1cc(-c2ccccc2)sc1NC(=O)C1CCC(NC(=O)c2cccc(NS(C)(=O)=O)c2)CC1 (centres unmarked) [Compound 285]
29 | > 100 | CCOC(=O)c1cc(-c2ccccc2)sc1NC(=O)C1CCN(Cc2cccc(NS(C)(=O)=O)c2)C1 (centres unmarked) [Compound 184]
30 | > 100 | COC(=O)c1cc(-c2ccccc2)sc1NC(=O)COC(=O)c1cccc(NS(C)(=O)=O)c1 [Compound 191]
31 | ≤ 25 | CCOC(=O)c1cc(-c2ccccc2)sc1NC(=O)COC(=O)c1cccc(NS(=O)(=O)c2ccn(C)n2)c1 [Compound 296]
32 | > 100 | CCOC(=O)c1cc(-c2ccccc2)sc1NC(=O)c1cccc(S(=O)(=O)NC)c1 [Compound 55]
33 | > 100 | CCOC(=O)c1cc(-c2ccccc2)sc1NC(=O)COC(=O)c1nonc1NS(C)(=O)=O [Compound 374]
34 | > 100 | CCOC(=O)c1cc(-c2ccccc2)sc1NC(=O)COC(=O)c1cccc(NS(=O)(=O)CC)c1 [Compound 134]
35 | > 100 | CCOC(=O)c1cc(-c2ccccc2)sc1NC(=O)COC(=O)c1cccc(NS(=O)(=O)C(C)C)c1 [Compound 131]
36 | > 100 | CCOC(=O)c1cc(-c2ccccc2)sc1NC(=O)Cn1nncc1-c1cccc(NS(C)(=O)=O)c1 [Compound 182]
37 | > 100 | CCCCS(=O)(=O)Nc1cccc(C(=O)OCC(=O)Nc2sc(-c3ccccc3)cc2C(=O)OCC)c1 [Compound 133]
38 | > 100 | CCOC(=O)c1cc(-c2ccccc2)sc1NC(=O)CNc1cccc(S(N)(=O)=O)c1 [Compound 8]

Row | EC50 [µM] | Structure (SMILES)
39 | > 100 | CCOC(=O)c1ccc(-c2ccccc2)cc1NC(=O)COC(=O)c1cccc(NS(C)(=O)=O)c1 [Compound 120]
40 | > 100 | CCOC(=O)c1cc(-c2ccccc2)sc1NC(=O)COC(=O)c1ccc(S(N)(=O)=O)cc1 [Compound 68]
41 | > 100 | NS(=O)(=O)c1cccc(NC(=O)CNC(=O)c2ccc(-c3cccnc3)s2)c1 [Compound 19]
42 | > 100 | CCOC(=O)c1cc(-c2ccccc2)ncc1NC(=O)C1CCN(C(=O)c2cccc(NS(C)(=O)=O)c2)C1 (centres unmarked) [Compound 210]
43 | > 100 | COC(=O)c1ccsc1NC(=O)CNC(=O)c1cccc(S(N)(=O)=O)c1 [Compound 22]
44 | ≤ 25 | CCOC(=O)c1cc(-c2ccccc2)ncc1NC(=O)COC(=O)c1cccc(NS(C)(=O)=O)c1 [Compound 189]
45 | > 100 | CCOC(=O)c1cc(-c2ccccc2)sc1NC(=O)c1cccc(S(N)(=O)=O)c1 [Compound 10]
46 | > 100 | CCOC(=O)c1cc(-c2ccccc2)sc1NC(=O)CNS(=O)(=O)c1cccc(CO)c1 [Compound 61]
47 | > 100 | CCOC(=O)c1cc(-c2ccccc2)sc1NC(=O)CNC(=O)c1ccccc1 [Compound 6]
48 | ≤ 25 | CCOC(=O)c1cc(-c2ccccc2)sc1NC(=O)C1CCN(C(=O)c2cccc(NS(C)(=O)=O)c2)C1 (centres unmarked) [Compound 138, Ethyl 2-(1-(3-(methylsulfonamido)benzoyl)pyrrolidine-3-carboxamido)-5-phenylthiophene-3-carboxylate]
49 | > 100 | CCOC(=O)c1cc(-c2ccccc2)sc1NC(=O)CCOC(=O)c1cccc(NS(C)(=O)=O)c1 [Compound 229]
50 | > 100 | CS(=O)(=O)Nc1cccc(C(=O)OCC(=O)Nc2sc(-c3ccccc3)cc2C(=O)OCC(=O)O)c1 [Compound 209]
51 | > 100 | CCOC(=O)c1cc(-c2ccccc2)sc1NC(=O)COC(=O)c1cccc(OS(C)(=O)=O)c1 [Compound 82]
52 | > 100 | CCOC(=O)c1cc(-c2ccccc2OC(F)(F)F)sc1NC(=O)COC(=O)c1cccc(NS(C)(=O)=O)c1 [Compound 201]
53 | > 100 | CCOC(=O)c1cc(-c2ccccc2)sc1NC(=O)CCSc1cccc(NS(C)(=O)=O)c1 [Compound 324]
54 | > 100 | CCOC(=O)c1cc(-c2ccccc2)sc1NC(=O)CONC(=O)c1cccc(NS(C)(=O)=O)c1 [Compound 282]
55 | > 100 | CCOC(=O)c1cc(-c2ccccc2)sc1NC(=O)CN1C(=O)CN(C(=O)c2cccc(NS(C)(=O)=O)c2)C1=O [Compound 238]
56 | > 100 | CCOC(=O)c1cc(-c2ccccc2)sc1NC(=O)COC(=O)c1ccc(F)c(S(N)(=O)=O)c1 [Compound 69]
57 | > 100 | CCOC(=O)c1cc(-c2ccccc2)sc1NC(=O)COC(=O)c1cccc(B(O)O)c1 [Compound 299]

Row | Structure (SMILES) | EC50 [µM]
58 | CCOC(=O)c1cc(-c2ccccc2)sc1NC(=O)CNC(=O)Cc1cccc(P(=O)(OCC)OCC)c1 [Compound 348] | > 100
59 | CCOC(=O)c1sc(-c2ccccc2)cc1NC(=O)COC(=O)c1cccc(P(=O)(OCC)OCC)c1 [Compound 370] | > 100
